# US20250325695A1, “NANOPARTICLE FOR USE IN A PROPHYLAXIS OR IN A TREATMENT OF A CALCIFICATION OF BRUCHS MEMBRANE AND DRUSEN” (Universität Münster, priority 2024, published 2025)
# Experiments:
# Jurkat cells = assay: WST-1 cytotoxicity assay, Jurkat; format: cell-based, human; conditions: 24 h incubation, highest concentration of range 0.5 to 250 μg/ml
# Method: (§1) hCMEC/D3 cells were cultivated using RPMI 1640 supplemented with 1% (v/v) non-essential amino acids, 1% ([…] (200 mM), 1% (v/v) gentamicin, 1% (v/v) sodium pyruvate (100 mM), 550 nM hydrocortisone, and 20% (v/v) FBS. Jurkat cells were cultivated using RPMI 1640 supplemented with 1% (v/v) of a mixture of penicillin (100 U/ml) and streptomycin (100 μg/ml), 1% ([…] (200 mM), 1% (v/v) gentamicin, and 10% (v/v) FBS. Both cell lines were stored in T75 cell culture flasks in an incubator at a temperature of 37° C. and 100% humidity at 5% CO2 atmosphere. The cells were split twice a week at a ratio of approximately 1:3. After thawing, all experiments were conducted within a maximum of 20 passages. To evaluate the cytotoxicity of the NP formulations a WST-1 assay (Roche Diagnostics, Mannheim, Germany) was conducted on Jurkat and hCMEC/D3 cell lines. Human macrophages and HUVECs were tested applying a XTT assay (Sigma-Aldrich Chemie GmbH, Munich, Germany). After seeding Jurkat and hCMEC/D3 cells in a 96 well plate at a density of 2×10^4 cells/well (hCMEC/D3 cells suspended in 100 μL, Jurkat cells suspended in 50 μL), they were cultured for 48 h with serum containing medium. […] After 30 min, the absorbance was measured again. […] The blank measurement was subtracted and the absorbances were correlated to the controls. […]
# hCMEC/D3 cells = assay: WST-1 cytotoxicity assay, hCMEC/D3; format: cell-based, human; conditions: 24 h incubation, highest concentration of range 0.5 to 250 μg/ml, related to pure medium
# Method: as §1
smiles,measurement,setting,value
"O=C(O)CN(CCN(CC(=O)O)CC(=O)O)CCN(CC(=O)O)CC(=O)O [DTPA, diethylenetriaminepentaacetic acid]","cell viability, Jurkat cells",Jurkat cells,73.0±6.6%
same,"cell viability, hCMEC/D3 cells",hCMEC/D3 cells,78.4±6.9%
